Where “and” joins values, the source holds several entries; their conditions need not be identical. Identical values can stand only once.
Legend:
[1] = tested on: serotonin receptor of Fig_S10h (subtype not given); assay: β-arrestin2 recruitment (Tango), agonist activity, source data Fig_S10h; type: cell-based, human; details: drug alone
DRD5 = DRD5 (Homo sapiens, UniProt P21918); assay: β-arrestin2 recruitment (Tango); type: cell-based; details: Fig_S10e, single replicates
DRD2 F1103.28A = DRD2 F1103.28A (Homo sapiens, UniProt P14416, F110A); assay: Gαi/o-mediated cAMP inhibition (GloSensor), mutant; type: cell-based; set-up: expressed in transfected cells; host or cells: HEK293T (ATCC CRL-11268)
DRD3 F1063.28A = DRD3 F1063.28A (Homo sapiens, UniProt P35462, F106A); assay: biochemical; type: binding
[2] = tested on: serotonin receptor (subtype not given; reference agonist serotonin); assay: β-arrestin2 recruitment (Tango), agonist activity, source data Fig_S10m; type: cell-based, human; details: drug alone
DRD4 (D4.4 variant) [3] = target: T1, DRD4 (D4.4 variant) (Homo sapiens, UniProt P21917); assay: β-arrestin2 recruitment (Tango); type: cell-based; details: for Fig_S10c concentration-response source data, compound alone (replicates): agonist mode
T1 sequence (P21917 1-419): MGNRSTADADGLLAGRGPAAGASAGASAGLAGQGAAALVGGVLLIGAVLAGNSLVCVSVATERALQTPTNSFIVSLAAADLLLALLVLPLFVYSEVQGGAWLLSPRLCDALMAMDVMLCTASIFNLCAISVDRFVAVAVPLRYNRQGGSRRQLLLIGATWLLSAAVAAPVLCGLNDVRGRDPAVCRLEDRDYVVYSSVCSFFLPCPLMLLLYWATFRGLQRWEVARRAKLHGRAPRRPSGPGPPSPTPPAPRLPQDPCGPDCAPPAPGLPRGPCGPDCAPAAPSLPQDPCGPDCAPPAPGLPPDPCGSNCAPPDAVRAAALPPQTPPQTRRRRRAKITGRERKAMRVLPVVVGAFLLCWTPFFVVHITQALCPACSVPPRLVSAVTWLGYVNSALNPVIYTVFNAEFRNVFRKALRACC

DRD4 (D4.4 variant) [4] = target: T1, DRD4 (D4.4 variant); assay: Gαi/o-mediated cAMP inhibition (GloSensor); type: cell-based; details: DRD4; agonist, cAMP inhibition; read-out: EC50 ± SEM
DRD2 (D2 long receptor) = DRD2 (D2 long receptor) (Homo sapiens, UniProt P14416); assay: Gαi/o-mediated cAMP inhibition (GloSensor split-luciferase cAMP reporter), HEK293T; type: cell-based; details: DRD2;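 also: compounds applied 15 min at room temperature, then luciferin plus 400 nM isoproterenol to raise cAMP through endogenous β2-adrenergic receptors, luminescence read 15 min later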
Sequence of DRD2 (D2 long receptor) (P14416 whole entry): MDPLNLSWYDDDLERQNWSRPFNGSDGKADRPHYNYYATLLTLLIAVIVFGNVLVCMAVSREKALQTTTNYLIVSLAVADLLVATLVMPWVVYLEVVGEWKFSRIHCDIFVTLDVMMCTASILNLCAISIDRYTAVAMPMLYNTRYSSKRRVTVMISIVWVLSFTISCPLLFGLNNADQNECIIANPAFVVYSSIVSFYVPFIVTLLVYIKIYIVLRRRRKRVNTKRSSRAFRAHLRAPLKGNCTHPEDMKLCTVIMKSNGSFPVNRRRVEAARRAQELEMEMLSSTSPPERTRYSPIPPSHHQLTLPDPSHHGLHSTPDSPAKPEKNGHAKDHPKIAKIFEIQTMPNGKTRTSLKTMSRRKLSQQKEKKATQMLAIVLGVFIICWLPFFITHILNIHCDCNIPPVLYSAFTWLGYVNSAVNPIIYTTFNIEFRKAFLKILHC

Sequence of DRD5 (P21918 whole entry): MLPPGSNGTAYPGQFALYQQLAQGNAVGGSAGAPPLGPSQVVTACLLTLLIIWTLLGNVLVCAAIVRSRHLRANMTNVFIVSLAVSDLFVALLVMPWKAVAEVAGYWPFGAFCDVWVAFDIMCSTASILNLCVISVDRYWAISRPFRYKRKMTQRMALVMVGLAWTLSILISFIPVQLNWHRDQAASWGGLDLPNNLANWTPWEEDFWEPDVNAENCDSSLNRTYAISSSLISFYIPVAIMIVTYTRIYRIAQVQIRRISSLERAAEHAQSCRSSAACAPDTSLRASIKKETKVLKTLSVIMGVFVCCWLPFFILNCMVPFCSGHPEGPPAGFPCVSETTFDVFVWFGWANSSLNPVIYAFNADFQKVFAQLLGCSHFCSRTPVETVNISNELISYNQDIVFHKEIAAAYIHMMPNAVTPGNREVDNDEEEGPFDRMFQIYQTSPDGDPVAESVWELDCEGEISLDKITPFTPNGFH
Sequence of DRD3 F1063.28A (P35462 whole entry F106A): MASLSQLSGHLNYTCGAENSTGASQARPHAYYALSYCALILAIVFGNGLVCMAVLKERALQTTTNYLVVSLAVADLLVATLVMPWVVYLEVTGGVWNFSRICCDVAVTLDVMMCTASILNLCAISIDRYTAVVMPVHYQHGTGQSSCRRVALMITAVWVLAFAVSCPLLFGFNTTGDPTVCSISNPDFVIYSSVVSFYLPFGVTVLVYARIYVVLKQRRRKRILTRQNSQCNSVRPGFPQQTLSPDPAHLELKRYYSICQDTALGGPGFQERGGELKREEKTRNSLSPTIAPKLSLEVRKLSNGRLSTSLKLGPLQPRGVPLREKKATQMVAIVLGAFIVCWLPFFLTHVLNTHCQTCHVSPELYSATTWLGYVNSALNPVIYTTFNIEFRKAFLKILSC
Sequence of DRD2 F1103.28A (P14416 whole entry F110A): as the sequence (P14416 whole entry) above, with F110A counted along it

SMILES: CCOc1cccc2cc([C@@H](C)NCC3(O)CCCCC3)oc12 [O4RE6]
- response, single replicates of the concentration-response curve ([1]; Log[Drug] -6.52): 15.4121
- response, single replicates of the concentration-response curve ([1]; Log[Drug] -7): -9.449 and 43.8621 and 11.6211 and 7.472 and -0.3671 and 7.014 and 9.027 and 5.062 and -2.318
- response, single replicates of the concentration-response curve ([1]; Log[Drug] -7.52): 25.9192 and 27.8404 and -0.5503 and -21.2455 and 4.046 and 14.5317 and -8.748 and -4.947 and 16.7319
- response, single replicates of the concentration-response curve ([1]; Log[Drug] -8): 2.165 and -8.081 and -1.811 and 5.963 and -1.683 and -1.147 and 3.049 and 7.499 and 13.7356
- response, single replicates of the concentration-response curve ([1]; Log[Drug] -8.52): -5.579 and -1.044 and 8.071 and 25.4179 and -14.3504 and -12.3048 and 9.427 and 1.454 and -6.523
- response, single replicates of the concentration-response curve ([1]; Log[Drug] -9): 17.8788 and 11.459 and -7.1 and 19.8102 and 1.922 and -5.946 and -1.184 and 8.604 and 6.934
- response, single replicates of the concentration-response curve ([1]; Log[Drug] -9.52): -10.7926 and -6.0806 and -1.59 and 6.349 and 24.5524 and -6.94 and -0.1308 and 12.3434 and 15.3584
- response, single replicates of the concentration-response curve ([1]; Log[Drug] -10): 15.7757 and 1.351 and 2.221 and 21.6342 and 13.8951 and -8.936 and 0.1938 and 1.6143 and 8.83
- response, single replicates of the concentration-response curve ([1]; Log[Drug] -10.52): 10.0241 and -11.69 and 6.115 and -3.242 and -2.048 and 6.485 and 2.339 and 5.815 and 3.938
- response, single replicates of the concentration-response curve ([1]; Log[Drug] -11): 9.617 and 2.873 and 5.027 and 13.6018 and -3.471 and 16.985 and 36.4073 and 2.626 and 1.374
- response, single replicates of the concentration-response curve ([1]; Log[Drug] -11.52): 17.0328 and 12.1627 and -8.18 and -20.709 and -16.6678 and 9.0957 and -0.3236 and 13.7874 and 20.984
- response, single replicates of the concentration-response curve ([1]; Log[Drug] -12): -3.669 and 13.7874 and -0.578 and 18.9662 and 35.9393 and -1.197 and 0.5748 and 17.3951 and 3.035
- β-arrestin2 recruitment response, agonist mode (normalized) (DRD5; Log[Drug] -6.52): 3.307
- β-arrestin2 recruitment response, agonist mode (normalized) (DRD5; Log[Drug] -7): 3.556 and 3.7037 and 0.3329 and 4.539 and 1.619 and 0.7476 and 0.7305 and 1.517 and 0.06412
- β-arrestin2 recruitment response, agonist mode (normalized) (DRD5; Log[Drug] -7.52): 3.831 and -0.7608 and 1.183 and 2.699 and 1.3394 and 0.2373 and -0.5855 and 0.1756 and 0.6817
- β-arrestin2 recruitment response, agonist mode (normalized) (DRD5; Log[Drug] -8): -0.354 and 4.126 and 1.796 and 1.252 and 1.785 and 1.286 and -0.552 and 0.7932 and 1.175
- β-arrestin2 recruitment response, agonist mode (normalized) (DRD5; Log[Drug] -8.52): 4.945 and 4.734 and 2.002 and 0.8283 and 1.858 and 0.3616 and -0.1241 and 0.7932 and 0.1701
- β-arrestin2 recruitment response, agonist mode (normalized) (DRD5; Log[Drug] -9): -0.5336 and 1.162 and 2.8425 and 2.532 and 0.2334 and 1.094 and -1.004 and 0.5702 and 1.069
- β-arrestin2 recruitment response, agonist mode (normalized) (DRD5; Log[Drug] -9.52): 1.189 and -0.1004 and 3.714 and 0.519 and 0.6511 and 2.841 and 3.8684 and 0.6677 and 1.209
- β-arrestin2 recruitment response, agonist mode (normalized) (DRD5; Log[Drug] -10): 1.189 and -0.7027 and -2.2032 and 1.378 and 0.875 and 0.4502 and -0.1213 and -0.3875 and 2.24
- β-arrestin2 recruitment response, agonist mode (normalized) (DRD5; Log[Drug] -10.52): 0.7608 and -0.5125 and 1.416 and 1.597 and 1.308 and 1.974 and 3.531 and 1.161 and 0.5451
- β-arrestin2 recruitment response, agonist mode (normalized) (DRD5; Log[Drug] -11): -0.3117 and 1.606 and -1.358 and 0.3916 and 1.977 and 2.8 and -0.009758 and 3.703 and 3.711
- β-arrestin2 recruitment response, agonist mode (normalized) (DRD5; Log[Drug] -11.52): -1.77 and 3.926 and 0.7503 and 1.5356 and 0.746 and 0.6788 and -0.4001 and 8.516 and 5.095
- β-arrestin2 recruitment response, agonist mode (normalized) (DRD5; Log[Drug] -12): -0.9088 and 2.256 and -1.342 and 2.237 and 0.341 and 1.2057 and -1.023 and 0.1729 and 0.8517
- EC50 (DRD2 F1103.28A): > 10000 nM
- Ki (DRD3 F1063.28A): 1050 nM
- response, Fig_S10m, replicate values ([2]; Log[Drug] -10): 2.7529 and -0.4377 and -1.97 and -0.5261 and 1.876 and -0.04315 and 3.796 and 2.966 and 1.035
- response, Fig_S10m, replicate values ([2]; Log[Drug] -10.52): 0.7688 and 0.004826 and -2.114 and 0.954 and 0.8686 and -0.8567 and -0.09082 and -0.6687 and 2.414
- response, Fig_S10m, replicate values ([2]; Log[Drug] -11): 1.778 and -1.268 and 4.058 and 1.198 and 1.567 and 2.185 and -0.6818 and -1.429 and -2.744
- response, Fig_S10m, replicate values ([2]; Log[Drug] -11.52): -1.448 and 1.084 and -0.9329 and 1.724 and -0.9384 and 3.221 and 2.656 and 0.1211 and -2.648
- response, Fig_S10m, replicate values ([2]; Log[Drug] -12): 3.008 and 0.9208 and 2.0444 and 1.398 and -0.9127 and 1.032 and 3.604 and 5.24 and 4.003
- EC50 (DRD4 (D4.4 variant) [3]; DRD4, Tango, read-out: EC50 ± SEM): > 10000 nM
- β-arrestin2 recruitment response at DRD4 (source data, replicate values) (DRD4 (D4.4 variant) [3]; Log[Drug] -5): 6.217 and 2.763 and 2.001 and 1.287 and 1.775 and 4.058 and 4.003 and 0.06427 and 0.2106
- Fig_S10c concentration-response source data, compound alone (replicates) (DRD4 (D4.4 variant) [3]; Log[Drug] -5): 5.394 and 8.31 and 11.4353 and 9.275 and 2.582 and 4.074 and 8.729 and 7.933 and 14.0378
- β-arrestin2 recruitment response at DRD4 (source data, replicate values) (DRD4 (D4.4 variant) [3]; Log[Drug] -5.52): 2.6039 and -1.106 and -1.946 and -0.4701 and 1.404 and 2.39 and 0.8979 and 0.0552 and 0.08381
- Fig_S10c concentration-response source data, compound alone (replicates) (DRD4 (D4.4 variant) [3]; Log[Drug] -5.52): 1.202 and 2.837 and 2.321 and 1.635 and 2.366 and 3.787 and 1.627 and 3.207 and 0.6688
- β-arrestin2 recruitment response at DRD4 (source data, replicate values) (DRD4 (D4.4 variant) [3]; Log[Drug] -6): 3.584 and -1.188 and -0.584 and -0.6588 and 0.8796 and 1.83 and 0.7762 and 0.03516 and 0.171
- Fig_S10c concentration-response source data, compound alone (replicates) (DRD4 (D4.4 variant) [3]; Log[Drug] -6): 2.086 and 2.7849 and 3.425 and -0.09437 and 0.02849 and 3.5238 and 0.3966 and 3.288 and 1.462
- β-arrestin2 recruitment response at DRD4 (source data, replicate values) (DRD4 (D4.4 variant) [3]; Log[Drug] -6.52): 1.007 and 4.325 and 1.323 and -0.8974 and 1.527 and -0.05366 and -0.1047 and 0.03541 and 0.08444
- Fig_S10c concentration-response source data, compound alone (replicates) (DRD4 (D4.4 variant) [3]; Log[Drug] -6.52): 1.505 and 1.478 and 5.593 and -1.936 and -0.8155 and 0.5983 and 2.508 and 1.037 and -0.4712
- β-arrestin2 recruitment response at DRD4 (source data, replicate values) (DRD4 (D4.4 variant) [3]; Log[Drug] -7): 1.079 and -1.731 and -1.221 and -1.369 and 0.6898 and 0.678 and 1.948 and 0.1059 and 0.1355
- Fig_S10c concentration-response source data, compound alone (replicates) (DRD4 (D4.4 variant) [3]; Log[Drug] -7): 2.288 and 4.238 and 0.7634 and -1.02 and 3.3404 and -2.026 and 1.575 and 0.945 and -0.6741
- β-arrestin2 recruitment response at DRD4 (source data, replicate values) (DRD4 (D4.4 variant) [3]; Log[Drug] -7.52): 0.371 and -1.716 and -1.784 and -0.5805 and -0.6243 and 1.534 and -0.4267 and 0.02533 and 0.04436
- β-arrestin2 recruitment response at DRD4 (source data, replicate values) (DRD4 (D4.4 variant) [3]; Log[Drug] -8): 0.8799 and -0.7087 and -1.711 and -1.318 and -0.195 and -0.3626 and 1.952 and 0.0707 and 0.1967
- β-arrestin2 recruitment response at DRD4 (source data, replicate values) (DRD4 (D4.4 variant) [3]; Log[Drug] -8.52): 1.656 and -1.517 and -1.8 and 0.5698 and 0.5353 and -0.6701 and 0.003927 and 0.031 and 0.0242
- β-arrestin2 recruitment response at DRD4 (source data, replicate values) (DRD4 (D4.4 variant) [3]; Log[Drug] -9): 0.08244 and -0.5912 and 1.416 and -2.021 and 1.101 and 0.6872 and 0.9463 and -0.03415 and 0.05621
- β-arrestin2 recruitment response at DRD4 (source data, replicate values) (DRD4 (D4.4 variant) [3]; Log[Drug] -10.52): 2.403
- β-arrestin2 recruitment response at DRD4 (source data, replicate values) (DRD4 (D4.4 variant) [3]; Log[Drug] -11): 4.161 and -1.784 and -1.43 and 0.349 and 0.8023 and -0.5301 and 2.686 and -0.07952 and -0.04373
- β-arrestin2 recruitment response at DRD4 (source data, replicate values) (DRD4 (D4.4 variant) [3]; Log[Drug] -11.52): 0.6452 and -1.9266 and -1.439 and -0.7995 and -0.6204 and 1.59 and -0.483 and -0.008444 and -0.04903
- EC50 (DRD4 (D4.4 variant) [4]): > 10000 nM
- EC50 (DRD2 (D2 long receptor); agonist, Gαi/o-mediated cAMP inhibition, read-out: EC50 ± SEM): 0.45 ± 0.05 nM
- G protein agonist activity (DRD2 (D2 long receptor); cAMP inhibition): full agonist
- Emax (DRD2 (D2 long receptor); HEK-293T, read-out: Emax relative to quinpirole response, cAMP inhibition): 94.5%
